A word on the IC50: it is the concentration at which inhibition is half-maximal.

The experiment addresses T1, CCR2 (Homo sapiens, UniProt P41597).
T1 construct: host or cells: THP-1 human monocytic cells
T1 sequence (P41597 1-360 isoform P41597-2): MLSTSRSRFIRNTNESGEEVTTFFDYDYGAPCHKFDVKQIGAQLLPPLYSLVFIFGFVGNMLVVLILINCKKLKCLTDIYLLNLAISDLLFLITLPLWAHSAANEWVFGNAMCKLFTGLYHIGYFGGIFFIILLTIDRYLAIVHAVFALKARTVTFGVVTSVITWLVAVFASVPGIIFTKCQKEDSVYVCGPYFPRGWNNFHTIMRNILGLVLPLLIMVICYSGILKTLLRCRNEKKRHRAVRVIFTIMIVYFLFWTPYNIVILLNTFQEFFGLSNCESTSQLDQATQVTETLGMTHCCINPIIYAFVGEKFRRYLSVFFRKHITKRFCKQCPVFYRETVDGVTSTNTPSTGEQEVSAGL
Description: MCP-1 Receptor Binding Assay in THP-1 Cells. The conditions noted are these: 0.5 nM 125I labeled MCP-1, 2 hours at 30° C., read-out: Inhibition of MCP-1 Binding IC50 CCR2 Binding. How it is done:
MCP-1 Receptor Binding Assay in THP-1 Cells
Human monocytic cell line THP-1 cells were obtained from American Type Culture Collection (Manassas, Va., USA). […] The cell density was maintained […].
1 μM cold MCP-1 was used for nonspecific binding.
Consider `O=C(CNC(=O)c1cccc(C(F)(F)F)c1)NC1CN(C2CCC(c3ccccc3)CC2)C1` (single isomer, unassigned) [Example 4a, N-{[1-(4-Phenyl-cyclohexyl)-azetidin-3-ylcarbamoyl]-methyl}-3-trifluoromethyl-benzamide], for which the IC50 was 33 nM.
Consider `O=C(CNC(=O)c1cccc(C(F)(F)F)c1)NC1CN(C2CCC(O)(c3ccc4c(c3)OCO4)CC2)C1` (single isomer, unassigned) [Example 31a, N-{[1-(4-Benzo[1,3]dioxol-5-yl-4-hydroxy-cyclohexyl)-azetidin-3-ylcarbamoyl]-methyl}-3-trifluoromethyl-benzamide], for which the IC50 worked out at 46 nM.
For `O=C(CNC(=O)c1cccc(C(F)(F)F)c1)NC1CN(C2CCC(c3ccc4c(c3)OCO4)CC2)C1` (single isomer, unassigned) [Example 1a, N-{[1-(4-Benzo[1,3]dioxol-5-yl-cyclohexyl)-azetidin-3-ylcarbamoyl]-methyl}-3-trifluoromethyl-benzamide], the IC50 came out at 1.2 nM.
Take `CC(C)(C)NC(=O)Nc1cc(C(=O)NCC(=O)NC2CN(C3CCC(c4ccccc4)CC3)C2)cc(C(F)(F)F)c1` (stereo not drawn) [Example 82, 3-(3-tert-Butyl-ureido)-N-{[1-(4-phenyl-cyclohexyl)-azetidin-3-ylcarbamoyl]-methyl}-5-trifluoromethyl-benzamide]: the IC50 was found to be 50 nM.
For the molecule `O=C(CNC(=O)c1cccc(C(F)(F)F)c1)NC1CN(C2CCC(c3ccc4nc[nH]c4c3)CC2)C1` (single isomer, unassigned) [Example 20a, N-({1-[4-(3H-Benzoimidazol-5-yl)-cyclohexyl]-azetidin-3-ylcarbamoyl}-methyl)-3-trifluoromethyl-benzamide], the IC50 amounted to 27 nM.
Consider `CCn1c(=O)oc2ccc(C3(O)CCC(N4CC(NC(=O)CNC(=O)c5cccc(C(F)(F)F)c5)C4)CC3)cc21` (single isomer, unassigned) [Example 65a, N-({1-[4-(3-Ethyl-2-oxo-2,3-dihydro-benzooxazol-5-yl)-4-hydroxy-cyclohexyl]-azetidin-3-ylcarbamoyl}-methyl)-3-trifluoromethyl-benzamide], for which the IC50 is 150 nM.
As for `CS(=O)(=O)Nc1cccc(C2(O)CCC(N3CC(NC(=O)CNC(=O)c4cccc(C(F)(F)F)c4)C3)CC2)c1` (stereo not drawn) [Example 61, N-({1-[4-Hydroxy-4-(3-methanesulfonylamino-phenyl)-cyclohexyl]-azetidin-3-ylcarbamoyl}-methyl)-3-trifluoromethyl-benzamide], the IC50 was determined as 130 nM.
In the case of `CN(C)c1ccc(C(F)(F)F)cc1C(=O)NCC(=O)NC1CN(C2CCC(c3ccccc3)CC2)C1` (stereo not drawn) [Example 69, 2-Dimethylamino-N-{[1-(4-phenyl-cyclohexyl)-azetidin-3-ylcarbamoyl]-methyl}-5-trifluoromethyl-benzamide], the IC50 came out at 240 nM.
With `Nc1cc(C(=O)NCC(=O)NC2CN(C3CCC(c4ccccc4)CC3)C2)cc(C(F)(F)F)c1` (stereo not drawn) [Example 79, 3-Amino-N-{[1-(4-phenyl-cyclohexyl)-azetidin-3-ylcarbamoyl]-methyl}-5-trifluoromethyl-benzamide] the figure was 23 nM.
With `N=C(N)Cc1ccc(C2CCC(N3CC(NC(=O)CNC(=O)c4cccc(C(F)(F)F)c4)C3)CC2)cc1` (stereo not drawn) [Example 22, N-({1-[4-(4-Carbamimidoylmethyl-phenyl)-cyclohexyl]-azetidin-3-ylcarbamoyl}-methyl)-3-trifluoromethyl-benzamide] the figure was 8600 nM; with `O=C(CNC(=O)c1cccc(C(F)(F)F)c1)NC1CN(C2CCC(O)(c3ccc(Cl)cc3)CC2)C1` (stereo not drawn) [Example 53, N-({1-[4-(4-Chloro-phenyl)-4-hydroxy-cyclohexyl]-azetidin-3-ylcarbamoyl}-methyl)-3-trifluoromethyl-benzamide], 240 nM; with `O=C(CNC(=O)c1cccc(C(F)(F)F)c1)NC1CN(C2CCC(O)(c3ccc(O)cc3)CC2)C1` (stereo not drawn) [Example 42, N-({1-[4-Hydroxy-4-(4-hydroxy-phenyl)-cyclohexyl]-azetidin-3-ylcarbamoyl}-methyl)-3-trifluoromethyl-benzamide], 130 nM.
On to `CCOC(=O)Cc1ccc(C2CCC(N3CC(NC(=O)CNC(=O)c4cccc(C(F)(F)F)c4)C3)CC2)cc1` (single isomer, unassigned) [Example 24a, [4-(4-{3-[2-(3-Trifluoromethyl-benzoylamino)-acetylamino]-azetidin-1-yl}-cyclohexyl)-phenyl]-acetic acid ethyl ester], for which the IC50 came to 340 nM.
With `CSc1cccc(C2(O)CCC(N3CC(NC(=O)CNC(=O)c4cccc(C(F)(F)F)c4)C3)CC2)c1` (single isomer, unassigned) [Example 38a, N-({1-[4-Hydroxy-4-(3-methylsulfanyl-phenyl)-cyclohexyl]-azetidin-3-ylcarbamoyl}-methyl)-3-trifluoromethyl-benzamide], the IC50 is 190 nM.
For `CS(=O)(=O)N(c1cc(C(=O)NCC(=O)NC2CN(C3CCC(c4ccccc4)CC3)C2)cc(C(F)(F)F)c1)S(C)(=O)=O` (stereo not drawn) [Example 80, 3-Bis methanesulfonyl-N-{[1-(4-phenyl-cyclohexyl)-azetidin-3-ylcarbamoyl]-methyl}-5-trifluoromethyl-benzamide], the IC50 was found to be 420 nM.
The result for `O=C(O)COc1ccc(C2CCC(N3CC(NC(=O)CNC(=O)c4cccc(C(F)(F)F)c4)C3)CC2)cc1` (stereo not drawn) [Example 44] reads 124 nM; that for `O=C(CNC(=O)c1cc(F)cc(C(F)(F)F)c1)NC1CN(C2CCC(c3ccccc3)CC2)C1` (single isomer, unassigned) [Example 76a, 3-Fluoro-N-{[1-(4-phenyl-cyclohexyl)-azetidin-3-ylcarbamoyl]-methyl}-5-trifluoromethyl-benzamide], 220 nM; that for `N#CCc1ccc(C2CCC(N3CC(NC(=O)CNC(=O)c4cccc(C(F)(F)F)c4)C3)CC2)cc1` (single isomer, unassigned) [Example 21a, N-({1-[4-(4-Cyanomethyl-phenyl)-cyclohexyl]-azetidin-3-ylcarbamoyl}-methyl)-3-trifluoromethyl-benzamide], 30 nM.
With `O=C(CNC(=O)c1cccc(C(F)(F)F)c1)NC1CN(C2CCC(c3ccc4sc(=O)[nH]c4c3)CC2)C1` (single isomer, unassigned) [Example 6a, N-({1-[4-(2-Oxo-2,3-dihydro-benzothiazol-5-yl)-cyclohexyl]-azetidin-3-ylcarbamoyl}-methyl)-3-trifluoromethyl-benzamide], the IC50 was 200 nM.
Turning to `CCOC(=O)c1cccc(C2CCC(N3CC(NC(=O)CNC(=O)c4cccc(C(F)(F)F)c4)C3)CC2)c1` (single isomer, unassigned) [Example 11a, 3-(4-{3-[2-(3-Trifluoromethyl-benzoylamino)-acetylamino]-azetidin-1-yl}-cyclohexyl)-benzoic acid ethyl ester], the IC50 was determined as 135 nM.
`NC(=O)Nc1ccc(C2CCC(N3CC(NC(=O)CNC(=O)c4cccc(C(F)(F)F)c4)C3)CC2)cc1` (stereo not drawn) [Example 19, 3-Trifluoromethyl-N-({1-[4-(4-ureido-phenyl)-cyclohexyl]-azetidin-3-ylcarbamoyl}-methyl)-benzamide]: the IC50 amounted to 130 nM.
In the case of `Cn1c(=O)n(C)c2cc(C3(O)CCC(N4CC(NC(=O)CNC(=O)c5cccc(C(F)(F)F)c5)C4)CC3)ccc21` (stereo not drawn) [Example 62, N-({1-[4-(1,3-Dimethyl-2-oxo-2,3-dihydro-1H-benzoimidazol-5-yl)-4-hydroxy-cyclohexyl]-azetidin-3-ylcarbamoyl}-methyl)-3-trifluoromethyl-benzamide], the half-inhibitory concentration (IC50) is 82 nM.
Take `O=C(CNC(=O)c1cccc(C(F)(F)F)c1)NC1CN(C2CCC(O)(c3ccc4nc[nH]c4c3)CC2)C1` (single isomer, unassigned) [Example 34a, N-({1-[4-(3H-Benzoimidazol-5-yl)-4-hydroxy-cyclohexyl]-azetidin-3-ylcarbamoyl}-methyl)-3-trifluoromethyl-benzamide]: the IC50 worked out at 310 nM.
Turning to `O=C(CNC(=O)c1cccc(C(F)(F)F)c1)NC1CN(C2CCC(O)(c3cccc(O)c3)CC2)C1` (single isomer, unassigned) [Example 46a, N-({1-[4-Hydroxy-4-(3-hydroxy-phenyl)-cyclohexyl]-azetidin-3-ylcarbamoyl}-methyl)-3-trifluoromethyl-benzamide], the IC50 was determined as 110 nM.
On to `O=C(CNC(=O)c1cc(C(F)(F)F)cc(C(F)(F)F)c1)NC1CN(C2CCC(c3ccccc3)CC2)C1` (single isomer, unassigned) [Example 75a, N-{[1-(4-Phenyl-cyclohexyl)-azetidin-3-ylcarbamoyl]-methyl}-3,5-bis-trifluoromethyl-benzamide], for which the IC50 was determined as 4700 nM.
With `O=C(CNC(=O)c1cccc(C(F)(F)F)c1)NC1CN(C2CCC(O)(c3ccc4c(c3)OCCO4)CC2)C1` (single isomer, unassigned) [Example 32a, N-({1-[4-(2,3-Dihydro-benzo[1,4]dioxin-6-yl)-4-hydroxy-cyclohexyl]-azetidin-3-ylcarbamoyl}-methyl)-3-trifluoromethyl-benzamide], the IC50 came out at 63 nM.
With `COc1ccc(C2(O)CCC(N3CC(NC(=O)CNC(=O)c4cccc(C(F)(F)F)c4)C3)CC2)cc1F` (single isomer, unassigned) [Example 57a, N-({1-[4-(3-Fluoro-4-methoxy-phenyl)-4-hydroxy-cyclohexyl]-azetidin-3-ylcarbamoyl}-methyl)-3-trifluoromethyl-benzamide] the figure was 33 nM.

Values taken from patent publication US8513229B2, “4-Azetidinyl-1-phenyl-cyclohexane antagonists of CCR2” (Janssen Pharmaceutica NV, priority 2009, dated 2013).
